Here are results for 2 compounds from patent US6468505B1, “Technique to monitor drug delivery noninvasively in vivo” (Philipp Lang, priority 1997, dated 2002).

For data set [1] the following is noted: unencapsulated, free chelate; cited from earlier work.
A short description of data set [2]: NMR relaxometry of GdDTPA-BMA containing liposomes in vitro (inversion recovery T1). It counts as physicochemical. The conditions noted are these: GdDTPA-BMA in solution of solubilized liposome (0.1% C12E8), 1 mM Gd.
Protocol: NMR relaxometry and magnetic resonance (MR) imaging were performed using a 2.0 Tesla small bore magnet (Bruker Omega 2.0T System, Bruker Instruments, Inc., Fremont, Calif.) equipped with actively shielded gradients (Accustar™ S-150, Bruker Instruments, Inc., Fremont, Calif.) capable of delivering field gradients up to 20 G/cm along each axis (X, Y and Z).
T1 relaxation rates of various liposome suspensions with a mean diameter of 110 nm were determined by standard inversion recovery measurment. The content of GdDTPA-BMA in liposome suspensions was estimated from NMR relaxometry. An inversion recovery NMR spectroscopy pulse sequence was performed in which a nonselective composite inversion pulse (90x-180y-90x) was applied, followed by a gradient spoiler pulse to eliminate residual coherent in-plane magnetization. After a variable delay time (TI), z-magnetization was sampled by a nonselective 90° radiofrequency pulse and the signal was recorded. The inversion recovery signal profile was obtained from at least forty such measurements in which the TI delay was incremented from 20 ms to a value that was at least 3-fold greater than the T1.
Mz(TI)/M∞=1−k exp(TI/T1) Eq. 1,
in which Mz(TI) is the signal intensity measured at a particular value of TI, M∞ is the fully relaxed signal intensity, and k has the value of 2.0 if the inversion pulse is exactly 180°. […]

For `O=C([O-])CN(CCN(CC(=O)[O-])CC(=O)O)CCN(CC(=O)[O-])CC(=O)O.[Gd+3]` [Gd-DTPA, gadolinium-diethylene triamine pentaacetic acid], the biologic half-life entry in data set [1] is “approximately 30 min”.

Turning to `CNC(=O)CN(CCN(CCN(CC(=O)[O-])CC(=O)NC)CC(=O)[O-])CC(=O)[O-].[Gd+3]` [Gd-DTPA-BMA, Gadolinium-diethylene-triamine-pentaacetic-acid-bis-methylamide], the “Relaxivity=ΔR1/[Gd]” value in data set [2] was determined as 4.07 s⁻¹ mM⁻¹. Besides, in data set [1], the biologic half-life entry is “approximately 30 min”.
